Test results published in PubChem BioAssay AID1259407 (Chemical Carcinogenesis Research Information System (CCRIS), 2018).
Active and inactive are the calls of the source. No rule for the calls is given here.

Tested on: CCRIS mutagenicity, Ames/micronucleus/aberration tests
Test: CCRIS mutagenicity studies
Conditions: Test System: AMES SALMONELLA TYPHIMURIUM

## CCOc1ccc(NO)cc1
Strain/Indicator: TA100(NR), Metabolic Activation: NONE, Method: PREINCUBATION
  mutagenic call: inactive; negative
Strain/Indicator: TA100(NR), Metabolic Activation: NONE, Method: STANDARD PLATE
  mutagenic call: inactive; negative
Strain/Indicator: TA100, Metabolic Activation: HAMSTER, LIVER, S-9, KANECHLOR 400, Method: PREINCUBATION
  mutagenic call: active; positive
Strain/Indicator: TA100, Metabolic Activation: NONE, Method: STANDARD PLATE
  mutagenic call: inactive; negative
Strain/Indicator: TA100TN5-1,8-DNP1011, Metabolic Activation: NONE, Method: PREINCUBATION
  mutagenic call: inactive; negative
Strain/Indicator: TA100TN5-1,8-DNP1011, Metabolic Activation: NONE, Method: STANDARD PLATE
  mutagenic call: inactive; negative
Strain/Indicator: TA100TN5-1,8-DNP1012, Metabolic Activation: NONE, Method: PREINCUBATION
  mutagenic call: inactive; negative
Strain/Indicator: TA100TN5-1,8-DNP1012, Metabolic Activation: NONE, Method: STANDARD PLATE
  mutagenic call: inactive; negative
Strain/Indicator: YG1026, Metabolic Activation: NONE, Method: PREINCUBATION
  mutagenic call: active; positive
Strain/Indicator: YG1029, Metabolic Activation: NONE, Method: PREINCUBATION
  mutagenic call: active; positive
Strain/Indicator: YG1042, Metabolic Activation: NONE, Method: PREINCUBATION
  mutagenic call: active; positive
